Reference: PMC6499206, “Quantification of Volatile Metabolites Derived From Garlic (Allium sativum) in Human Urine” (Frontiers in Nutrition, 2019)

Experiment: Quantification of garlic-derived metabolites in human urine after ingestion of 3 g raw garlic (SIDA, SAFE, HRGC-MS / HRGC-GC-MS)
Assay type: in vivo
Details: for metabolite concentration in urine / metabolite concentration in urine, creatinine-normalized: 3 g raw garlic
Summary of the method: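 Quantification used stable isotope dilution (²H3-AMS, -AMSO, -AMSO2 standards), SAFE distillation at 50°C of DCM-treated urine, and GC-MS on a DB-FFAP column, with creatinine from the Jaffé reaction at 492 nm. Urine came from 18 volunteers avoiding sulfur-rich foods, sampled before and up to 24 h after eating 3 g raw garlic.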

C=CC[S+](C)[O-] (stereo not shown) [AMSO, allyl methyl sulfoxide]
concentration in urine compared with human milk (3 g raw garlic in both studies, milk data ref 20): about three times as high | metabolite concentration in urine (U I, 0.5 h post (0.55 h)): 168.4 µg/kg | metabolite concentration in urine, creatinine-normalized (U I, 0.5 h post (0.55 h)): 23.6 µg/mmol creatinine | metabolite concentration in urine (U I, 1 h post (1.03 h)): 191.0 µg/kg | metabolite concentration in urine, creatinine-normalized (U I, 1 h post (1.03 h)): 205.9 µg/mmol creatinine | metabolite concentration in urine (U I, 2 h post (2.05 h)): 227.6 µg/kg | metabolite concentration in urine, creatinine-normalized (U I, 2 h post (2.05 h)): 112.5 µg/mmol creatinine | metabolite concentration in urine (U I, 4 h post (4.05 h)): 165.7 µg/kg | metabolite concentration in urine, creatinine-normalized (U I, 4 h post (4.05 h)): 19.1 µg/mmol creatinine | metabolite concentration in urine (U I, 6 h post (6.05 h)): 119.1 µg/kg | metabolite concentration in urine, creatinine-normalized (U I, 6 h post (6.05 h)): 13.2 µg/mmol creatinine | metabolite concentration in urine (U I, 8 h post (8.05 h)): 41.8 µg/kg | metabolite concentration in urine, creatinine-normalized (U I, 8 h post (8.05 h)): 5.8 µg/mmol creatinine | metabolite concentration in urine (U I, 24 h post (25.55 h)): 1.6 µg/kg | metabolite concentration in urine, creatinine-normalized (U I, 24 h post (25.55 h)): 0.3 µg/mmol creatinine | metabolite concentration in urine (U I, pre (-0.03 h)): < LOD^2 | metabolite concentration in urine, creatinine-normalized (U I, pre (-0.03 h)): < LOD^2 | metabolite concentration in urine (U II, 0.5 h post (0.50 h)): 147.7 µg/kg | metabolite concentration in urine, creatinine-normalized (U II, 0.5 h post (0.50 h)): 14.0 µg/mmol creatinine | metabolite concentration in urine (U II, 1 h post (1.00 h)): 133.4 µg/kg | metabolite concentration in urine, creatinine-normalized (U II, 1 h post (1.00 h)): 51.2 µg/mmol creatinine | metabolite concentration in urine (U II, 2 h post (2.00 h)): 63.7 µg/kg | metabolite concentration in urine, creatinine-normalized (U II, 2 h post (2.00 h)): 62.6 µg/mmol creatinine | metabolite concentration in urine (U II, 4 h post (4.00 h)): 64.8 µg/kg | metabolite concentration in urine, creatinine-normalized (U II, 4 h post (4.00 h)): 12.0 µg/mmol creatinine | metabolite concentration in urine (U II, 6 h post (6.00 h)): 33.4 µg/kg | metabolite concentration in urine, creatinine-normalized (U II, 6 h post (6.00 h)): 3.7 µg/mmol creatinine | metabolite concentration in urine (U II, 8 h post (8.00 h)): 15.2 µg/kg | metabolite concentration in urine, creatinine-normalized (U II, 8 h post (8.00 h)): 1.8 µg/mmol creatinine | metabolite concentration in urine (U II, 24 h post (24.12 h)): traces^2 | metabolite concentration in urine, creatinine-normalized (U II, 24 h post (24.12 h)): traces^2 | metabolite concentration in urine (U II, pre (-0.13 h)): < LOD^2 | metabolite concentration in urine, creatinine-normalized (U II, pre (-0.13 h)): < LOD^2 | metabolite concentration in urine (U III, 0.5 h post (0.53 h)): 124.4 µg/kg | metabolite concentration in urine, creatinine-normalized (U III, 0.5 h post (0.53 h)): 74.5 µg/mmol creatinine | metabolite concentration in urine (U III, 1 h post (1.07 h)): 136.4 µg/kg | metabolite concentration in urine, creatinine-normalized (U III, 1 h post (1.07 h)): 192.7 µg/mmol creatinine | metabolite concentration in urine (U III, 2 h post (2.18 h)): 214.7 µg/kg | metabolite concentration in urine, creatinine-normalized (U III, 2 h post (2.18 h)): 133.1 µg/mmol creatinine | metabolite concentration in urine (U III, 4 h post (4.35 h)): 123.7 µg/kg | metabolite concentration in urine, creatinine-normalized (U III, 4 h post (4.35 h)): 47.0 µg/mmol creatinine | metabolite concentration in urine (U III, 6 h post (6.35 h)): 62.3 µg/kg | metabolite concentration in urine, creatinine-normalized (U III, 6 h post (6.35 h)): 12.2 µg/mmol creatinine | metabolite concentration in urine (U III, 8 h post (8.43 h)): 29.0 µg/kg | metabolite concentration in urine, creatinine-normalized (U III, 8 h post (8.43 h)): 5.2 µg/mmol creatinine | metabolite concentration in urine (U III, 24 h post (23.90 h)): 3.0 µg/kg | metabolite concentration in urine, creatinine-normalized (U III, 24 h post (23.90 h)): 0.5 µg/mmol creatinine | metabolite concentration in urine (U III, pre (-0.03 h)): 4.6 µg/kg | metabolite concentration in urine, creatinine-normalized (U III, pre (-0.03 h)): 0.8 µg/mmol creatinine | metabolite concentration in urine (U IV, 0.5 h post (0.55 h)): 144.3 µg/kg | metabolite concentration in urine, creatinine-normalized (U IV, 0.5 h post (0.55 h)): 30.7 µg/mmol creatinine | metabolite concentration in urine (U IV, 1 h post (1.05 h)): 141.0 µg/kg | metabolite concentration in urine, creatinine-normalized (U IV, 1 h post (1.05 h)): 117.5 µg/mmol creatinine | metabolite concentration in urine (U IV, 2 h post (2.12 h)): 129.7 µg/kg | metabolite concentration in urine, creatinine-normalized (U IV, 2 h post (2.12 h)): 82.3 µg/mmol creatinine | metabolite concentration in urine (U IV, 4 h post (4.05 h)): 108.9 µg/kg | metabolite concentration in urine, creatinine-normalized (U IV, 4 h post (4.05 h)): 22.6 µg/mmol creatinine | metabolite concentration in urine (U IV, 6 h post (6.08 h)): 63.5 µg/kg | metabolite concentration in urine, creatinine-normalized (U IV, 6 h post (6.08 h)): 4.6 µg/mmol creatinine | metabolite concentration in urine (U IV, 8 h post (8.05 h)): 31.9 µg/kg | metabolite concentration in urine, creatinine-normalized (U IV, 8 h post (8.05 h)): 6.7 µg/mmol creatinine | metabolite concentration in urine (U IV, 24 h post (24.03 h)): 3.8 µg/kg | metabolite concentration in urine, creatinine-normalized (U IV, 24 h post (24.03 h)): 0.4 µg/mmol creatinine | metabolite concentration in urine (U IV, pre (-0.05 h)): < LOD^2 | metabolite concentration in urine, creatinine-normalized (U IV, pre (-0.05 h)): < LOD^2 | metabolite concentration in urine (U IX, 0.5 h post (0.67 h)): 164.4 µg/kg | metabolite concentration in urine, creatinine-normalized (U IX, 0.5 h post (0.67 h)): 156.1 µg/mmol creatinine | metabolite concentration in urine (U IX, 1 h post (1.17 h)): 332.3 µg/kg | metabolite concentration in urine, creatinine-normalized (U IX, 1 h post (1.17 h)): 344.1 µg/mmol creatinine | metabolite concentration in urine (U IX, 2 h post (1.83 h)): 337.6 µg/kg | metabolite concentration in urine, creatinine-normalized (U IX, 2 h post (1.83 h)): 320.5 µg/mmol creatinine | metabolite concentration in urine (U IX, 4 h post (4.17 h)): 293.5 µg/kg | metabolite concentration in urine, creatinine-normalized (U IX, 4 h post (4.17 h)): 56.6 µg/mmol creatinine | metabolite concentration in urine (U IX, 6 h post (6.08 h)): 182.9 µg/kg | metabolite concentration in urine, creatinine-normalized (U IX, 6 h post (6.08 h)): 57.5 µg/mmol creatinine | metabolite concentration in urine (U IX, 8 h post (8.08 h)): 100.1 µg/kg | metabolite concentration in urine, creatinine-normalized (U IX, 8 h post (8.08 h)): 7.2 µg/mmol creatinine | metabolite concentration in urine (U IX, 24 h post (24.00 h)): 30.4 µg/kg | metabolite concentration in urine, creatinine-normalized (U IX, 24 h post (24.00 h)): 3.5 µg/mmol creatinine | metabolite concentration in urine (U IX, pre (-0.08 h)): < LOD^2 | metabolite concentration in urine, creatinine-normalized (U IX, pre (-0.08 h)): < LOD^2 | metabolite concentration in urine (U V, 0.5 h post (0.50 h)): 84.4 µg/kg | metabolite concentration in urine, creatinine-normalized (U V, 0.5 h post (0.50 h)): 123.5 µg/mmol creatinine | metabolite concentration in urine (U V, 1 h post (1.00 h)): 122.6 µg/kg | metabolite concentration in urine, creatinine-normalized (U V, 1 h post (1.00 h)): 146.3 µg/mmol creatinine | metabolite concentration in urine (U V, 2 h post (2.00 h)): 104.6 µg/kg | metabolite concentration in urine, creatinine-normalized (U V, 2 h post (2.00 h)): 124.9 µg/mmol creatinine | metabolite concentration in urine (U V, 4 h post (4.00 h)): 104.9 µg/kg | metabolite concentration in urine, creatinine-normalized (U V, 4 h post (4.00 h)): 34.0 µg/mmol creatinine | metabolite concentration in urine (U V, 6 h post (6.00 h)): 68.8 µg/kg | metabolite concentration in urine, creatinine-normalized (U V, 6 h post (6.00 h)): 13.8 µg/mmol creatinine | metabolite concentration in urine (U V, 8 h post (8.00 h)): 29.0 µg/kg | metabolite concentration in urine, creatinine-normalized (U V, 8 h post (8.00 h)): 13.4 µg/mmol creatinine | metabolite concentration in urine (U V, 24 h post (24.00 h)): 1.9 µg/kg | metabolite concentration in urine, creatinine-normalized (U V, 24 h post (24.00 h)): 0.3 µg/mmol creatinine | metabolite concentration in urine (U V, pre (-0.05 h)): < LOD^2 | metabolite concentration in urine, creatinine-normalized (U V, pre (-0.05 h)): < LOD^2 | metabolite concentration in urine (U VI, 0.5 h post (0.50 h)): 193.1 µg/kg | metabolite concentration in urine, creatinine-normalized (U VI, 0.5 h post (0.50 h)): 88.3 µg/mmol creatinine | metabolite concentration in urine (U VI, 1 h post (1.00 h)): 203.5 µg/kg | metabolite concentration in urine, creatinine-normalized (U VI, 1 h post (1.00 h)): 169.6 µg/mmol creatinine | metabolite concentration in urine (U VI, 2 h post (2.00 h)): 143.4 µg/kg | metabolite concentration in urine, creatinine-normalized (U VI, 2 h post (2.00 h)): 129.2 µg/mmol creatinine | metabolite concentration in urine (U VI, 4 h post (4.00 h)): 134.9 µg/kg | metabolite concentration in urine, creatinine-normalized (U VI, 4 h post (4.00 h)): 39.0 µg/mmol creatinine | metabolite concentration in urine (U VI, 6 h post (6.00 h)): 188.9 µg/kg | metabolite concentration in urine, creatinine-normalized (U VI, 6 h post (6.00 h)): 35.0 µg/mmol creatinine | metabolite concentration in urine (U VI, 8 h post (8.00 h)): 79.0 µg/kg | metabolite concentration in urine, creatinine-normalized (U VI, 8 h post (8.00 h)): 15.8 µg/mmol creatinine | metabolite concentration in urine (U VI, 24 h post (24.17 h)): 139.8 µg/kg | metabolite concentration in urine, creatinine-normalized (U VI, 24 h post (24.17 h)): 9.6 µg/mmol creatinine | metabolite concentration in urine (U VI, pre (-0.05 h)): < LOD^2 | metabolite concentration in urine, creatinine-normalized (U VI, pre (-0.05 h)): < LOD^2 | metabolite concentration in urine (U VII, 0.5 h post (0.50 h)): 133.2 µg/kg | metabolite concentration in urine, creatinine-normalized (U VII, 0.5 h post (0.50 h)): 125.0 µg/mmol creatinine
